Legend:
[1] = test system: muscle progenitors (hMP) from DMD hiPSC or WT hiPSC; assay: Myotube assay: myogenic activity (total myotube area per well); type: cell-based, human; details: for Emax: Homo sapiens, 72 h, myotube assay, compounds incubated 3 days, read-out: MA (normalized Myotube Area, efficacy)
In short: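 DMD or WT hiPSC-derived muscle progenitors plated on collagen I in K5 medium with 5 μM Y-27632, treated with compound (1.5 nM–30 μM) for 3 days at 37° C. Cells were fixed, stained for alpha-actinin and imaged for total myotube area per well. EC50 and normalized myotube area (MA) taken from duplicate-averaged data.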

[2] = test system: satellite-like cells (Pax7-positive cells) in hMP; assay: Myotube assay: Pax7-positive (satellite-like) cell quantification; type: cell-based, human; parameters: key to Pax7% (pool of Pax7-positive cells) / Pax7: −: Depletes the pool of cells, while positively affects the myotubes; +: Maintains or increases the pool of cells, with at least 1 of the highest concentration known to be cytotoxic; ++: Maintains or increases the pool of cells, without any toxicity; details: for Pax7% (pool of Pax7-positive cells): myotube assay, compounds incubated 3 days
In short: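 DMD hiPSC-derived muscle progenitors (hMP) proliferated 4 days, then plated on collagen I in K5 medium with 5 μM Y-27632. Compound added at 1.5 nM–30 μM for 3 days at 37° C, then cells fixed and immunostained. Pax7-positive cells counted as percentage of total nuclei, duplicates averaged.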

Structure (SMILES) | Emax [1] [%] | Pax7% (pool of Pax7-positive cells) [2] | total myotube surface/well (myogenic activity) ([1]; DMD hMP, 10 concentrations 1.5 nM to 30 μM, 3 days, FIG. 2) | percentage of Pax7-positive cells ([2]; DMD hMP, 10 concentrations 1.5 nM to 30 μM, 3 days, FIG. 3)
CSc1cc(Oc2ccnc3c2OCCN3)ccc1NC(=O)Nc1cc(C(C)(C)C)nn1-c1ccccc1 [(cy), 1-(3-(tert-butyl)-1-phenyl-1H-pyrazol-5-yl)-3-(4-((3,4-dihydro-2H-pyrido[3,2-b][1,4]oxazin-8-yl)oxy)-2-(methylthio)phenyl)urea] | ≥ 75 | + |  | 
CSc1cc(Oc2ccnc3c2CCC(=O)N3)ccc1NC(=O)Nc1cc(C(C)(C)C)no1 [(cz), 1-(3-(tert-butyl)isoxazol-5-yl)-3-(2-(methylthio)-4-((7-oxo-5,6,7,8-tetrahydro-1,8-naphthyridin-4-yl)oxy)phenyl)urea] | ≥ 75 | + |  | 
O=C(Nc1ccc(Oc2ccnc3[nH]c(=O)cnc23)cc1F)Nc1cc(C2(C(F)(F)F)CC2)nn1-c1ccccc1 [(d), 1-(2-fluoro-4-((3-oxo-3,4-dihydropyrido[2,3-b]pyrazin-8-yl)oxy)phenyl)-3-(1-phenyl-3-(1-(trifluoromethyl)cyclopropyl)-1H-pyrazol-5-yl)urea] | 50 to 75 | + |  | 
CCOC(=O)Nc1cc(Oc2ccc(NC(=O)Nc3cc(C(C)(C)C)nn3-c3ccccc3)c3ccccc23)ccn1 [(da), Ethyl (4-((4-(3-(3-(tert-butyl)-1-phenyl-1H-pyrazol-5-yl)ureido)naphthalen-1-yl)oxy)pyridin-2-yl)carbamate] | ≥ 75 | + |  | 
CCOC(=O)Nc1cc(Oc2ccc(NC(=O)Nc3cc(C(C)(C)C)no3)c3ccccc23)ccn1 [(db), Ethyl (4-((4-(3-(3-(tert-butyl)isoxazol-5-yl)ureido)naphthalen-1-yl)oxy)pyridin-2-yl)carbamate] | ≥ 75 | + |  | 
CCOC(=O)Nc1cc(Oc2ccc(NC(=O)Nc3ncc(C(C)(C)C)s3)c3ccccc23)ccn1 [(dc), Ethyl (4-((4-(3-(5-(tert-butyl)thiazol-2-yl)ureido)naphthalen-1-yl)oxy)pyridin-2-yl)carbamate] | ≥ 75 | + |  | 
CSc1cc(Oc2ccnc3[nH]c(=O)cnc23)ccc1NC(=O)Nc1cc(C(C)(C)C)nn1-c1ccc(CN2CCOCC2)cc1 [(dd), 1-(3-(tert-butyl)-1-(4-(morpholinomethyl)phenyl)-1H-pyrazol-5-yl)-3-(2-(methylthio)-4-((3-oxo-3,4-dihydropyrido[2,3-b]pyrazin-8-yl)oxy)phenyl)urea] | ≥ 75 | + |  | 
CCOC(=O)Nc1cc(Oc2ccc(NC(=O)Nc3cc(C(C)(C)C)no3)c(SC)c2)ccn1 [(de), Ethyl (4-(4-(3-(3-(tert-butyl)isoxazol-5-yl)ureido)-3-(methylthio)phenoxy)pyridin-2-yl)carbamate] | ≥ 75 | + |  | 
CCOC(=O)Nc1cc(Oc2ccc(NC(=O)Nc3ncc(C(C)(C)C)s3)c(SC)c2)ccn1 [(df), Ethyl (4-(4-(3-(5-(tert-butyl)thiazol-2-yl)ureido)-3-(methylthio)phenoxy)pyridin-2-yl)carbamate] | ≥ 75 | + |  | 
CC(C)(C)c1cc(NC(=O)Nc2ccc(Oc3ccnc4c3CCC(=O)N4)c3ccccc23)on1 [(dg), 1-(3-(tert-butyl)isoxazol-5-yl)-3-(4-((7-oxo-5,6,7,8-tetrahydro-1,8-naphthyridin-4-yl)oxy)naphthalen-1-yl)urea] | ≥ 75 | + |  | 
CSc1cc(Oc2ccnc3[nH]c(=O)cnc23)ccc1NC(=O)Nc1cc(C(C)(C)C)on1 [(dh), 1-(5-(tert-butyl)isoxazol-3-yl)-3-(2-(methylthio)-4-((3-oxo-3,4-dihydropyrido[2,3-b]pyrazin-8-yl)oxy)phenyl)urea] | ≥ 75 | + |  | 
CCOC(=O)Nc1cc(Oc2ccc(NC(=O)Nc3cc(C(C)(C)C)on3)c(SC)c2)ccn1 [(di), Ethyl (4-(4-(3-(5-(tert-butyl)isoxazol-3-yl)ureido)-3-(methylthio)phenoxy)pyridin-2-yl)carbamate] | ≥ 75 | ++ |  | 
CC(=O)Nc1cc(Oc2ccc(NC(=O)Nc3cc(C(C)(C)C)nn3-c3ccccc3)c3ccccc23)ccn1 [(dj), N-(4-((4-(3-(3-(tert-butyl)-1-phenyl-1H-pyrazol-5-yl)ureido)naphthalen-1-yl)oxy)pyridin-2-yl)acetamide] | ≥ 75 | + |  | 
CSc1cc(Oc2ccncc2)ccc1NC(=O)Nc1cc(C(C)(C)C)nn1-c1ccccc1 [(dk), 1-(3-(tert-butyl)-1-phenyl-1H-pyrazol-5-yl)-3-(2-(methylthio)-4-(pyridin-4-yloxy)phenyl)urea] | 25 to 50 | ++ |  | 
CSc1cc(Oc2ccnc(NS(C)(=O)=O)c2)ccc1NC(=O)Nc1cc(C(C)(C)C)no1 [(dl), N-(4-(4-(3-(3-(tert-butyl)isoxazol-5-yl)ureido)-3-(methylthio)phenoxy)pyridin-2-yl)methanesulfonamide] | ≥ 75 | ++ |  | 
CSc1cc(Oc2ccnc3[nH]c(=O)[nH]c23)ccc1NC(=O)Nc1cc(C(C)(C)C)nn1-c1ccccc1 [(dm), 1-(3-(tert-butyl)-1-phenyl-1H-pyrazol-5-yl)-3-(2-(methylthio)-4-((2-oxo-2,3-dihydro-1H-imidazo[4,5-b]pyridin-7-yl)oxy)phenyl)urea] | ≥ 75 | − |  | 
CSc1cc(NC(=O)Nc2cc(C(C)(C)C)nn2-c2ccccc2)ccc1Oc1ccnc2[nH]c(=O)cnc12 [(dn), 1-(3-(tert-butyl)-1-phenyl-1H-pyrazol-5-yl)-3-(3-(methylthio)-4-((3-oxo-3,4-dihydropyrido[2,3-b]pyrazin-8-yl)oxy)phenyl)urea] | ≥ 75 | + |  | 
CSc1cc(Oc2ccnc3[nH]c(=O)ccc23)ccc1NC(=O)Nc1cc(C(C)(C)C)nn1-c1ccccc1 [(do), 1-(3-(tert-butyl)-1-phenyl-1H-pyrazol-5-yl)-3-(2-(methylthio)-4-((7-oxo-7,8-dihydro-1,8-naphthyridin-4-yl)oxy)phenyl)urea] | ≥ 75 | + |  | 
CSc1cc(Oc2ccnc3[nH]c(=O)cnc23)ccc1NC(=O)Nc1cc(C(C)(C)C)nn1-c1ccc(CN(C)C)cc1 [(dp), 1-(3-(tert-butyl)-1-(4-((dimethylamino)methyl)phenyl)-1H-pyrazol-5-yl)-3-(2-(methylthio)-4-((3-oxo-3,4-dihydropyrido[2,3-b]pyrazin-8-yl)oxy)phenyl)urea] | ≥ 75 | + |  | 
CSc1cc(Oc2ccnc(NC(=O)CO)c2)ccc1NC(=O)Nc1cc(C(C)(C)C)nn1-c1ccccc1 [(dq), N-(4-(4-(3-(3-(tert-butyl)-1-phenyl-1H-pyrazol-5-yl)ureido)-3-(methylthio)phenoxy)pyridin-2-yl)-2-hydroxyacetamide] | ≥ 75 | + |  | 
O=C(Nc1ccc(Oc2ccnc3[nH]c(=O)cnc23)cc1F)Nc1cc(C2CC2)nn1-c1ccccc1 [(e), 1-(3-cyclopropyl-1-phenyl-1H-pyrazol-5-yl)-3-(2-fluoro-4-((3-oxo-3,4-dihydropyrido[2,3-b]pyrazin-8-yl)oxy)phenyl)urea] | 25 to 50 | ++ |  | 
CC1(c2cc(NC(=O)Nc3ccc(Oc4ccnc5[nH]c(=O)cnc45)cc3F)n(-c3ccccc3)n2)COC1 [(f), 1-(2-fluoro-4-((3-oxo-3,4-dihydropyrido[2,3-b]pyrazin-8-yl)oxy)phenyl)-3-(3-(3-methyloxetan-3-yl)-1-phenyl-1H-pyrazol-5-yl)urea] | 50 to 75 | ++ |  | 
CC(C)Cc1cc(NC(=O)Nc2ccc(Oc3ccnc4[nH]c(=O)cnc34)cc2F)n(-c2ccccc2)n1 [(g), 1-(2-fluoro-4-((3-oxo-3,4-dihydropyrido[2,3-b]pyrazin-8-yl)oxy)phenyl)-3-(3-isobutyl-1-phenyl-1H-pyrazol-5-yl)urea] | ≥ 75 | + |  | 
CC(C)(C)c1cc(NC(=O)Nc2ccc(Oc3ccnc4[nH]c(=O)cnc34)cc2F)[nH]n1 [(h), 1-(3-(tert-butyl)-1H-pyrazol-5-yl)-3-(2-fluoro-4-((3-oxo-3,4-dihydropyrido[2,3-b]pyrazin-8-yl)oxy)phenyl)urea] | 25 to 50 | + |  | 
CC(C)n1nc(C(C)(C)C)cc1NC(=O)Nc1ccc(Oc2ccnc3[nH]c(=O)cnc23)cc1F [(i), 1-(3-(tert-butyl)-1-isopropyl-1H-pyrazol-5-yl)-3-(2-fluoro-4-((3-oxo-3,4-dihydropyrido[2,3-b]pyrazin-8-yl)oxy)phenyl)urea] | 50 to 75 | + | dose-dependent increase | dose-dependent increase
CC(C)(C)c1cc(NC(=O)Nc2ccc(Oc3ccnc4[nH]c(=O)cnc34)cc2F)n(Cc2ccccc2)n1 [(j), 1-(1-benzyl-3-(tert-butyl)-1H-pyrazol-5-yl)-3-(2-fluoro-4-((3-oxo-3,4-dihydropyrido[2,3-b]pyrazin-8-yl)oxy)phenyl)urea] | 50 to 75 | ++ |  | 

Reference: patent US20230089368A1, “POLYAROMATIC UREA DERIVATIVES AND THEIR USE IN THE TREATMENT OF MUSCLE DISEASES” (ANAGENESIS BIOTECHNOLOGIES S.A.S., priority 2019, published 2023)
